Measurements as given in US9302014B2, “Cell-penetrating peptides having a central hydrophobic domain” (Medical Research Council, priority 2011, dated 2016).
Non-standard residues stand in square brackets, D forms with d. No end group written: not given here. Ahx = NCCCCCC(=O)O; βAla = NCCC(=O)O

System: dystrophin
Experiment: Immunohistochemical staining and quantification of dystrophin in mdx mice after single IV injection
Assay type: in vivo
Details: 8 week old mdx mice, single 12.5 mg/kg IV, 2 weeks after injection
From the text: Given the potency of Pip5e-PMO in heart tissue, the aim of altering the sequence of the hydrophobic core (whilst maintaining the 5-aa length) was to identify peptides that might be more efficient at lower doses. These modifications included inversion of the hydrophobic region (Pip6a), substitution of tyrosine by isoleucine (Pip6b), substitution of glutamine in the Pip6a sequence by displacement of the arginine immediately flanking the core in the first arginine-rich flanking region (Pip6e), and a scrambled hydrophobic core sequence (Pip6f). All Pip6 peptide-PMO conjugates were administered to mdx mice as single 12.5 mg/kg intravenous injections via the tail vein and tissues were harvested 2 weeks later and assessed for activity at both RNA and protein levels.
Immunohistochemical staining quantification (FIGS. 34a, b) was performed as previously described [Malerba, A., et al., Chronic systemic therapy with low-dose morpholino oligomers ameliorates the pathology and normalizes locomotor behavior in mdx mice. Mol Ther, 2011. 19(2): p. 345-54; Arechavala-Gomeza, V., et al., Immunohistological intensity measurements as a tool to assess sarcolemma-associated protein expression. Neuropathol Appl Neurobiol, 2010. 36(4): p. 265-74.] and was achieved by taking 4 representative frames of the dystrophin staining and correlating this with laminin staining for each section (n=3) of the quadriceps, diaphragm and heart for each peptide-PMO treatment. Untreated mdx and treated mdx mice were normalised to C57BL10 mice. This method allows comparison of the staining intensity of dystrophin at the sarcolemma relative to laminin for each treatment group. Intensity ratios are normalised to C57BL10 samples and each region of interest at the sarcolemma (120 regions for each treatment group) is plotted on a scatter graph. […]
Transverse sections of tissue samples were cut (8 μm thick) for the examination of dystrophin expression. For dystrophin visualisation and quantification, sections were co-stained with rabbit-anti-dystrophin (Abcam) and rat anti-laminin (Sigma), and detected by goat-anti-rabbit IgG Alexa 594 and goat-anti-rat IgG 488 secondary antibodies respectively (Invitrogen). […] Quantitative immunohistochemistry was performed as previously described [Malerba, A., et al., Chronic systemic therapy with low-dose morpholino oligomers ameliorates the pathology and normalizes locomotor behavior in mdx mice. […] For quantification, 4 representative frames of the dystrophin and correlating laminin were taken for each section (n=3) of the quadriceps, diaphragm and heart for each treatment. […] The minimum and maximum fluorescence intensity for 120 regions were recorded for each treatment. […]

Substance: Pip9d2: Pip9 series peptide (SEQ ID Nos 320-328) conjugated to PMODMD (R[Ahx]RR[βAla]RFQILY[βAla]R[Ahx]R[βAla]; also: conjugated to PMO (PMODMD))
- dystrophin expression in the heart: negligible dystrophin production
